US10011615B2, “Heterobicyclo-substituted [1,2,4]triazolo[1,5-c]quinazolin-5-amine compounds with A2A anatagonist properties” (Merck Sharp & Dohme Corp., priority 2012, dated 2018)

molecular target: T1, human A2a receptor (Homo sapiens, UniProt P29274); test: A2a receptor competition binding assay using Scintillation Proximity technology; details: membranes from HEK293 cells expressing human A2a receptor; 0.5 nM tritiated radioligand; SPA beads; 1 h room temperature
T1 construct: purchased Perkin-Elmer RBHA2AM400UA; host or cells: HEK293 cell membranes
Method in brief: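 Membranes of HEK293 cells expressing human A2a, pretreated with adenosine deaminase, incubated 1 h at room temperature with 0.5 nM tritiated pyrazolotriazolopyrimidine antagonist (final) and compound (3000 to 0.15 nM) on WGA SPA beads in Ca/Mg-free PBS with 10 mM MgCl2. Ki from EC50 via Cheng-Prusoff.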

T1 sequence (P29274 whole entry): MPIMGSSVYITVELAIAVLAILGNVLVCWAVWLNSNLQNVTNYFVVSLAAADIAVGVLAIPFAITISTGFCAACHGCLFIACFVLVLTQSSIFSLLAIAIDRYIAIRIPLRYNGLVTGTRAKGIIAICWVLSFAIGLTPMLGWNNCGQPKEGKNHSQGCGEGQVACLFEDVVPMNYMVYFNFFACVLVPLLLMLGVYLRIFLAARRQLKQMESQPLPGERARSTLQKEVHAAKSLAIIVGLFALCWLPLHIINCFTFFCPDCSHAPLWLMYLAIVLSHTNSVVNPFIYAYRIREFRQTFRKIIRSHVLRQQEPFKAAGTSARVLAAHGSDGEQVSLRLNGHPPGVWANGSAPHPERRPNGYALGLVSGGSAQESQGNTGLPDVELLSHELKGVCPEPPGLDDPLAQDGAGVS

SMILES	EC50 [nM]
COc1cccc2c1nc(N)n1nc(CCN3CCc4[nH]ncc4C3)nc21 [Ex-36, 2-(2-(6,7-dihydro-1H-pyrazolo[4,3-c]pyridin-5(4H)-yl)ethyl)-7-methoxy-[1,2,4]triazolo[1,5-c]quinazolin-5-amine]	6.7
COc1cccc2c1nc(N)n1nc(CCN3CCn4cc(C(=O)C5CC5)nc4C3)nc21 [Ex-10, (7-(2-(5-amino-7-methoxy[1,2,4]triazolo[1,5-c]quinazolin-2-yl)ethyl)-5,6,7,8-tetrahydroimidazo[1,2-a]pyrazin-2-yl)(cyclopropyl)methanone]	1.2
Nc1nc2c(F)cccc2c2nc(CCN3Cc4ccc(F)cc4C3)nn12 [Ex-85]	22.2
COc1cccc2c1nc(N)n1nc(CCN3CCn4nc(C)cc4C3)nc21 [Ex-41, 7-methoxy-2-(2-(2-methyl-6,7-dihydropyrazolo[1,5-a]pyrazin-5(4H)-yl)ethyl)-[1,2,4]triazolo[1,5-c]quinazolin-5-amine]	2.6
COc1cccc2c1nc(N)n1nc(CCN3CCc4cncnc4C3)nc21 [Ex-53, 2-(2-(5,6-dihydropyrido[3,4-d]pyrimidin-7(8H)-yl)ethyl)-7-methoxy-[1,2,4]triazolo[1,5-c]quinazolin-5-amine]	2.4
COc1cccc2c1nc(N)n1nc(CCN3CCc4cccnc4C3)nc21 [Ex-45, 2-(2-(5,6-dihydro-1,7-naphthyridin-7(8H)-yl)ethyl)-7-methoxy-[1,2,4]triazolo[1,5-c]quinazolin-5-amine]	4.3
COc1cccc2c1nc(N)n1nc(CCN3CCn4nccc43)nc21 [Ex-33, 2-(2-(2,3-dihydro-1H-imidazo[1,2-b]pyrazol-1-yl)ethyl)-7-methoxy-[1,2,4]triazolo[1,5-c]quinazolin-5-amine]	4.2
COc1cccc2c1nc(N)n1nc(CN3CCCc4ccccc43)nc21 [Ex-119, 2-((3,4-dihydroquinolin-1(2H)-yl)methyl)-7-methoxy-[1,2,4]triazolo[1,5-c]quinazolin-5-amine]	2.1
COc1cccc2c1nc(N)n1nc(CCN3CCc4sc(C(F)(F)F)nc4C3)nc21 [Ex-26, 7-methoxy-2-(2-(2-(trifluoromethyl)-6,7-dihydrothiazolo[4,5-c]pyridin-5(4H)-yl)ethyl)-[1,2,4]triazolo[1,5-c]quinazolin-5-amine]	0.5
COc1cccc2c1nc(N)n1nc(CCN3CCn4cc(C(F)(F)F)nc4C3)nc21 [Ex-58, 7-methoxy-2-(2-(2-(trifluoromethyl)-5,6-dihydroimidazo[1,2-a]pyrazin-7(8H)-yl)ethyl)-[1,2,4]triazolo[1,5-c]quinazolin-5-amine]	0.9
COc1cccc2c1nc(N)n1nc(CCN3CCc4[nH]nc(C)c4C3)nc21 [Ex-37, 7-methoxy-2-(2-(3-methyl-6,7-dihydro-1H-pyrazolo[4,3-c]pyridin-5(4H)-yl)ethyl)-[1,2,4]triazolo[1,5-c]quinazolin-5-amine]	6.4
Nc1nc2c(Cl)cccc2c2nc(CCN3CCCc4ccccc43)nn12 [Ex-82]	24.7
Nc1nc2c(OCF)cccc2c2nc(CCN3Cc4cccnc4C3)nn12 [Ex-79, 2-(2-(5H-pyrrolo[3,4-b]pyridin-6(7H)-yl)ethyl)-7-(fluoromethoxy)-[1,2,4]triazolo[1,5-c]quinazolin-5-amine]	22.3
COc1cccc2c1nc(N)n1nc(CCN3CCc4cccnc43)nc21 [Ex-21, 2-(2-(2,3-dihydro-1H-pyrrolo[2,3-b]pyridin-1-yl)ethyl)-7-methoxy-[1,2,4]triazolo[1,5-c]quinazolin-5-amine]	31.2
COc1cccc2c1nc(N)n1nc(CCN3CCc4c(sc(C5CC5)c4C#N)C3)nc21 [Ex-15, 6-(2-(5-amino-7-methoxy-[1,2,4]triazolo[1,5-c]quinazolin-2-yl)ethyl)-2-cyc1opropyl-4,5,6,7-tetrahydrothieno[2,3-c]pyridine-3-carbonitri1e]	2.2
CCc1nnc2n1CCN(CCc1nc3c4ccc(F)cc4nc(N)n3n1)C2 [Ex-95]	16.5
Nc1nc2c(Cl)cccc2c2nc(CCN3Cc4ccc(F)cc4C3)nn12 [Ex-80, 7-chloro-2-(2-(5-fluoroisoindolin-2-yl)ethyl)-[1,2,4]triazolo[1,5-c]quinazolin-5-amine]	12
COc1cccc2c1nc(N)n1nc(CCN3CCc4[nH]nc(C(F)(F)F)c4C3)nc21 [Ex-38, 7-methoxy-2-(2-(3-(trifluoromethyl)-6,7-dihydro-1H-pyrazolo[4,3-c]pyridin-5(4H)-yl)ethyl)-[1,2,4]triazolo[1,5-c]quinazolin-5-amine]	2
COc1cccc2c1nc(N)n1nc(CCN3CCc4nc(C)oc4C3)nc21 [Ex-28, 7-methoxy-2-(2-(2-methyl-6,7-dihydrooxazolo[5,4-c]pyridin-5(4H)-yl)ethyl)-[1,2,4]triazolo[1,5-c]quinazolin-5-amine]	2.2
COc1cccc2c1nc(N)n1nc(C[C@H](N3Cc4cccnc4C3)C(F)(F)F)nc21 [Ex-109]	12.2
CCN1CCN(c2ccnc3c2CCN(CCc2nc4c5cccc(OC)c5nc(N)n4n2)C3)CC1 [Ex-73, 2-(2-(4-(4-ethylpiperazin-1-yl)-5,6-dihydro-1,7-naphthyridin-7(8H)-yl)ethyl)-7-methoxy-[1,2,4]triazolo[1,5-c]quinazolin-5-amine]	3
COc1cccc2c1nc(N)n1nc(CCN3CCc4noc(C(F)(F)F)c4C3)nc21 [Ex-9, 7-methoxy-2-(2-(3-(trifluoromethyl)-6,7-dihydroisoxazolo[4,3-c]pyridin-5(4H)-yl)ethyl)-[1,2,4]triazolo[1,5-c]quinazolin-5-amine]	2.1
COc1cccc2c1nc(N)n1nc(CCN3Cc4ccccc4C(C)(C)C3)nc21 [Ex-62, 2-(2-(4,4-dimethyl-3,4-dihydroisoquinolin-2(1H)-yl)ethyl)-7-methoxy-[1,2,4]triazolo[1,5-c]quinazolin-5-amine]	6.2

Second part, the molecule after the results:

EC50 [nM]	SMILES
2.7	COc1cccc2c1nc(N)n1nc(CN3CCCCc4ccc(-c5ccccn5)nc43)nc21 [Ex-162, 7-methoxy-2-((2-(pyridin-2-yl)-7,8-dihydro-5H-pyrido[2,3-b]azepin-9(6H)-yl)methyl)-[1,2,4]triazolo[1,5-c]quinazolin-5-amine]
4.5	COc1cccc2c1nc(N)n1nc(CN3CCc4ccc(NC(=O)c5ccccn5)cc4C3)nc21 [Ex-166, N-(2-((5-amino-7-methoxy-[1,2,4]triazolo[1,5-c]quinazolin-2-yl)methyl)-1,2,3,4-tetrahydroisoquinolin-7-yl)picolinamide]
9	COc1cccc2c1nc(N)n1nc(CN3CCc4ccc(-c5cnn(C)c5)cc4C3)nc21 [Ex-180]
20.5	COc1cccc2c1nc(N)n1nc(CN3CCc4cc(F)ccc4C3)nc21 [Ex-130, 2-((6-fluoro-3,4-dihydroisoquinolin-2(1H)-yl)methyl)-7-methoxy-[1,2,4]triazolo[1,5-c]quinazolin-5-amine]
6	COc1cccc2c1nc(N)n1nc(CN3CCc4cc(C#N)ccc4C3)nc21 [Ex-122, 2-((5-amino-7-methoxy-[1,2,4]triazolo[1,5-c]quinazolin-2-yl)methyl)-1,2,3,4-tetrahydroisoquinoline-6-carbonitrile]
1.4	COc1cccc2c1nc(N)n1nc(CCN3CCc4nc(C)oc4C3C)nc21 (centres unmarked) [Ex-236, 2-(2-(2,4-dimethyl-6,7-dihydrooxazolo[5,4-c]pyridin-5(4H)-yl)ethyl)-7-methoxy-[1,2,4]triazolo[1,5-c]quinazolin-5-amine]
7.6	COc1cccc2c1nc(N)n1nc(CN3CCc4ccc(NC(C)=O)cc4C3)nc21 [Ex-167]
7.2	COc1cccc2c1nc(N)n1nc(CN3CCc4c(Br)ccnc4C3)nc21 [Ex-148]
3.9	COc1cccc2c1nc(N)n1nc(C[C@@H](C)N3CCn4nc(C)cc4C3)nc21 [Ex-221, (R)-7-methoxy-2-(2-(2-methyl-6,7-dihydropyrazolo[1,5-a]pyrazin-5(4H)-yl)propyl)-[1,2,4]triazolo[1,5-c]quinazolin-5-amine]
17	COc1cccc2c1nc(N)n1nc(CN3CCc4cccc(-c5cncnc5)c4C3)nc21 [Ex-177, 7-methoxy-2-((8-(pyrimidin-5-yl)-3,4-dihydroisoquinolin-2(1H)-yl)methyl)-[1,2,4]triazolo[l,5-c]quinazolin-5-amine]
191	COc1cccc2c1nc(N)n1nc(CN3CCN(C)Cc4cc(Cl)ccc43)nc21 [Ex-136, 2-((7-chloro-4-methyl-2,3,4,5-tetrahydro-1H-benzo[e][1,4]diazepin-1-yl)methyl)-7-methoxy-[1,2,4]triazolo[1,5-c]quinazolin-5-amine]
1.5	COc1cccc2c1nc(N)n1nc(CN3CCOc4ccccc43)nc21 [Ex-120, 2-((2H-benzo[b][1,4]oxazin-4(3H)-yl)methyl)-7-methoxy-[1,2,4]triazolo[1,5-c]quinazolin-5-amine]
35.5	Cc1cccc2c1nc(N)n1nc(CN3Cc4cccnc4C3)nc21 [Ex-200, 2-((5H-pyrrolo[3,4-b]pyridine-6(7H)-yl)methyl)-7-methyl-[1,2,4]triazolo[1,5-c]quinazolin-5-amine]
6.7	COc1cccc2c1nc(N)n1nc(CN3CCCc4cnccc43)nc21 [Ex-134, 2-((3,4-dihydro-1,6-naphthyridin-1(2H)-yl)methyl)-7-methoxy-[1,2,4]triazolo[1,5-c]quinazolin-5-amine]
16.1	COc1cccc2c1nc(N)n1nc(CN3Cc4ccc(Cl)nc4C3)nc21 [Ex-137]
612	N#Cc1cccc2c1nc(N)n1nc(CN3Cc4cccnc4C3)nc21 [Ex-197]
7.8	COc1cccc2c1nc(N)n1nc(CCCN3Cc4cccc(F)c4C3)nc21 [Ex-228, 2-(3-(4-fluoroisoindolin-2-yl)propyl)-7-methoxy-[1,2,4]triazolo[1,5-c]quinazolin-5-amine]
2.2	COc1cccc2c1nc(N)n1nc(CN3CCc4cc(Br)cnc43)nc21 [Ex-155, 2-((5-bromo-2,3-dihydro-1H-pyrrolo[2,3-b]pyridin-1-yl)methyl)-7-methoxy-[1,2,4]triazolo[1,5-c]quinazolin-5-amine]
